The numbers were not newly measured in patent US20110301189A1, “STABLE PHARMACEUTICAL COMPOSITIONS OF RAPAMYCIN ESTERS” (FRESENIUS KABI ONCOLOGY LTD., priority 2010, published 2011), which cites them from elsewhere.

For the data set the following is noted: aqueous solvents.

Consider `COC1CC2CCC(C)C(O)(O2)C(=O)C(=O)N2CCCCC2C(=O)OC(C(C)CC2CCC(OC(=O)C(C)(CO)CO)C(OC)C2)CC(=O)C(C)/C=C(\C)C(O)C(OC)C(=O)C(C)CC(C)/C=C/C=C/C=C/1C` (stereo not shown) [Rapamycin 42-ester with 3-hydroxy-2-(hydroxymethyl)-2-methylpropionic acid], for which the aqueous solubility result is “less than 1 μg/ml”.
